Literature values as cited in publication PMC11053489 (Viruses, 2024).

Tested on: SARS-CoV-2 with mutations in the RNA-dependent RNA polymerase gene
Conditions: cited from earlier work

For `CCC(CC)COC(=O)[C@H](C)N[P@](=O)(OC[C@H]1O[C@@](C#N)(c2ccc3c(N)ncnn23)[C@H](O)[C@@H]1O)Oc1ccccc1` [Remdesivir], which “increase in EC50 of resistant lineages” value is on record?
Its value is 2.5 to 10 fold.
